# Source: patent publication US20240173333A1, “Treating Alagille Syndrome (ALGS)” (priority 2022, published 2024)
# “Also recorded” adds a separate entry of the source. Marks after values point to notes of the source that are not given here.
# How the values were obtained:
# [1] = tested on: patients with Alagille syndrome (ALGS); assay: ASSERT: global impression of change (CGIC, CaGIC, PGIC) and exit survey; type: in vivo, human; details: post hoc analysis; completion of study
# [2] = tested on: patients with Alagille syndrome (ALGS); assay: ASSERT: safety, treatment-emergent adverse events; type: in vivo, human
# Source text: Safety. The primary safety analysis for this study included the incidence of total treatment-emergent adverse events (AEs) and treatment-emergent adverse events (TEAEs) categorized by causality, severity, and seriousness assessments made by the investigator by comparing study drug exposure to placebo. Other safety assessments included physical examinations, concomitant medications, vital signs, laboratory tests, and liver ultrasound and elastography.
# [3] = tested on: patients with Alagille syndrome (ALGS); assay: ASSERT: hepatic parameters, biochemical markers and markers of bile acid synthesis; type: in vivo, human
# Source text: (§1) […] Additional secondary efficacy endpoints were as follows: • Change from baseline in pruritus to Month 6 (Weeks 21 to 24) as measured by the Albireo PRO instrument. • Percentage of patients achieving a clinically meaningful decrease in pruritus (pruritis responders) as measured by the ObsRO/PRO instruments. • Change from baseline through Week 24 in patient reported and observer reported itching and scratching severity scores, respectively, for the morning assessment and for the evening assessment; sleep parameters as measured with the Albireo ObsRO/PRO instruments (e.g., tiredness and number of awakenings); and PedsQL subdomain scores. • Assessment of Global Symptom Relief to from baseline to Weeks 4, 12, and 24 as measured by patient, caregiver, and clinician Global Impression of Symptoms GIS (PGIS, CaGIS, CGIS) items. • Change from baseline to Week 24 in xanthomatosis as assessed by the Clinician Xanthoma Scale; serum bile acid levels; serum ALT concentration; and serum AST concentration; gamma-glutamyl transferase concentration; total bilirubin concentration. • Change from baseline in biochemical markers and measures of bile acid synthesis (autotaxin, p-C4, only in patients >10 kg); and total cholesterol concentration.
# Biochemical Markers and PK Samples. Blood samples for analysis of clinical chemistry were drawn during Screening Visits 1 and 2, as well as at randomization (Study Day 1), Week 4 to 24/EOT, and Safety Follow-up visits. As outlined in Table 1, total bilirubin, AST, ALT, and gamma glutamyl transferase assessments were included as part of the routine laboratory parameters. Blood samples for autotaxin and p-C4 were drawn at randomization (Study Day 1), Week 12, and Week 24/EOT, only for children with body weight >10 kg. Blood for odevixibat PK assessment was drawn at Week 4, Week 20, and EOT (only for children with body weight >10 kg). Samples were processed and transported to a laboratory per instructions in the laboratory manual.
# [4] = tested on: patients with Alagille syndrome (ALGS); assay: ASSERT: Clinician Xanthoma Scale; type: in vivo, human
# Experimental: Clinical Assessment of Xanthoma. Changes in xanthoma as assessed by the Clinician Xanthoma Scale were measured at randomization (Study Day 1), Week 12, and Week 24/EOT visits. The clinician's assessment of the participant's xanthomatosis was focused on the number of lesions present and the degree to which the participant's lesions interfered or limited activities.
# [5] = tested on: patients with Alagille syndrome (ALGS); assay: ASSERT pruritus responders: TEAEs
# Source text: Treatment with concomitant medications for pruritus was permitted provided the patient was on a stable dosage for ≥4 weeks prior to enrollment that was maintained throughout the study.
# Pruritus responders were defined as patients having a ≥1-point decrease in ObsRO scratching score from baseline to weeks 21-24).
# [6] = tested on: patients with Alagille syndrome (ALGS); assay: ASSERT: ObsRO sleep parameters and daytime tiredness; type: in vivo, human
# Source text: as §1
# Itching, Scratching, and Sleep Parameters. Itching, observed scratching, and sleep disturbance were recorded twice each day via eDiary. Patients and/or caregivers were instructed to complete the eDiary every day in the morning after the patient woke and in the evening just before the patient went to sleep throughout the study. The eDiary included ObsRO and PRO items. The PRO items assessed severity of itch, aspects of sleep disturbance (morning diary only), and tiredness. The ObsRO items assessed severity of observed scratching, aspects of observed sleep disturbance (morning diary only), and signs of tiredness (evening diary only). The ObsRO and PRO scratching and itch severity items used 0 to 4 response scales.
# [7] = baseline, before treatment, n=35
# [8] = baseline, before treatment, patients >10 kg
# [9] = week 24, 120 μg/kg/day, patients >10 kg
# [10] = weeks 21-24, caregiver-reported
compound,measurement,setting,value
"CCCCC1(CCCC)CN(c2ccccc2)c2cc(SC)c(OCC(=O)N[C@@H](C(=O)N[C@@H](CC)C(=O)O)c3ccc(O)cc3)cc2S(=O)(=O)N1 [odevixibat, 1,1-dioxo-3,3-dibutyl-5-phenyl-7-methylthio-8-(N-{(R)-α-[N-((S)-1-carboxypropyl)carbamoyl]-4-hydroxybenzyl}carbamoylmethoxy)-2,3,4,5-tetrahydro-1,2,5-benzothiadiazepine]",caregivers reporting meaningful change in the patient since the start of treatment (exit survey),[1],78%
same,tolerability,[2]; 120 μg/kg/day over 24 weeks,generally well tolerated
same,deaths or TEAEs leading to study drug discontinuation,[2]; 24 weeks,No deaths or treatment-emergent adverse events leading to study drug discontinuation; also recorded: no deaths or treatment-emergent adverse events (TEAEs) leading to discontinuation of treatment
same,incidence of COVID-19,[2]; 24 weeks,14.3%
same,incidence of GI disorders,[2]; 24 weeks,34%
same,incidence of abdominal pain (preferred terms abdominal pain and abdominal pain upper),[2]; 24 weeks,14%
same,incidence of bronchitis,[2]; 24 weeks,8.6%
same,incidence of infections,[2]; 24 weeks,51.4%
same,incidence of liver-related events,[2]; 24 weeks,11%
same,incidence of respiratory tract infection,[2]; 24 weeks,8.6%
same,incidence of upper respiratory tract infection,[2]; 24 weeks,8.6%
same,incidence of SAEs,"[2]; 24 weeks, 120 μg/kg/day",14.3%
same,incidence of drug-related TEAE diarrhea,"[2]; 24 weeks, 120 μg/kg/day",11%
same,incidence of drug-related TEAEs,"[2]; 24 weeks, 120 μg/kg/day",23%
same,incidence of treatment-emergent diarrhea,"[2]; 24 weeks, 120 μg/kg/day",29%
same,patients with ALT and AST elevations ≥3× baseline without concurrent (within 30 days) elevations in total bilirubin ≥2× baseline,"[2]; 24 weeks, n=35",2 patients
same,serious infections reported,"[2]; 24 weeks, n=35",3 patients
same,patients who experienced at least one TEAE,"[2]; 26 of 35, 24 weeks, 120 μg/kg/day",74%
same,liver decompensation events,[2]; during the study,no cases
same,"GGT, LS mean (SE) change from baseline to week 24","[3]; 120 μg/kg/day, n=35",100 (44) U/L
same,"Serum ALT, LS mean (SE) change from baseline to week 24","[3]; 120 μg/kg/day, n=35",66 (14) U/L
same,"Serum AST, LS mean (SE) change from baseline to week 24","[3]; 120 μg/kg/day, n=35",54 (15) U/L
same,"Total bilirubin, LS mean (SE) change from baseline to week 24","[3]; 120 μg/kg/day, n=35",1 (3) μmol/L
same,"Total cholesterol, LS mean (SE) change from baseline to week 24","[3]; 120 μg/kg/day, n=35",−1 (1) mmol/L
same,"Autotaxin, Mean (SD) change from baseline to week 24","[3]; 120 μg/kg/day, patients >10 kg",−414 (439) ng/mL
same,"C4, Mean (SD) change from baseline to week 24","[3]; 120 μg/kg/day, patients >10 kg",12 (12) ng/mL
same,"GGT, Mean (SD) at baseline",[3]; [7],366 (211) U/L
same,"Serum ALT, Mean (SD) at baseline",[3]; [7],186 (83) U/L
same,"Serum AST, Mean (SD) at baseline",[3]; [7],170 (81) U/L
same,"Total bilirubin, Mean (SD) at baseline",[3]; [7],52 (43) μmol/L
same,"Total cholesterol, Mean (SD) at baseline",[3]; [7],8 (2) mmol/L
same,"Autotaxin, Mean (SD) at baseline",[3]; [8],1846 (540) ng/mL
same,"C4, Mean (SD) at baseline",[3]; [8],6 (6) ng/mL
same,patients with post-treatment changes in Total Bilirubin (≥3×BL) concurrently with ALT (≥2×BL) (Hy's Law / drug induced liver injury cases),"[3]; post-baseline, 24 weeks",No patient
same,"GGT, Mean (SD) at week 24","[3]; week 24, 120 μg/kg/day, n=35",460 (270) U/L
same,"Serum ALT, Mean (SD) at week 24","[3]; week 24, 120 μg/kg/day, n=35",245 (121) U/L
same,"Serum AST, Mean (SD) at week 24","[3]; week 24, 120 μg/kg/day, n=35",217 (131) U/L
same,"Total bilirubin, Mean (SD) at week 24","[3]; week 24, 120 μg/kg/day, n=35",53 (42) μmol/L
same,"Total cholesterol, Mean (SD) at week 24","[3]; week 24, 120 μg/kg/day, n=35",7 (2) mmol/L
same,"Autotaxin, Mean (SD) at week 24",[3]; [9],1452 (440) ng/mL
same,"C4, Mean (SD) at week 24",[3]; [9],19 (13) ng/mL
same,patients with no change from baseline to week 24 in xanthomas,"[4]; 27/35, incl. 25 patients without xanthomas at any time point",77%
same,patients showing improvements in xanthomas,"[4]; baseline to week 24, n=35",20%
same,patients whose Clinician Xanthoma Scale score increased (from 0 to 1),"[4]; baseline to week 24, n=35",3%
same,pruritus responders reporting any TEAE,[5]; 21 of 28,75%
same,TEAEs leading to death or study drug discontinuation,[5]; pruritus responders,no TEAEs leading to death or study drug discontinuation were reported
same,Any TEAE,"[5]; pruritus responders, n=28",21 (75) n (%)
same,Any TEAE: Mild,"[5]; pruritus responders, n=28",10 (36) n (%)
same,Any TEAE: Moderate,"[5]; pruritus responders, n=28",8 (29) n (%)
same,Any TEAE: Severe,"[5]; pruritus responders, n=28",3 (11) n (%)
same,Drug-related TEAE: Abdominal pain,"[5]; pruritus responders, n=28",1 (4) n (%)
same,Drug-related TEAE: Abdominal pain upper,"[5]; pruritus responders, n=28",1 (4) n (%)
same,Drug-related TEAE: Blood triglycerides increased,"[5]; pruritus responders, n=28",1 (4) n (%)
same,Drug-related TEAE: Diarrhea,"[5]; pruritus responders, n=28",4 (14) n (%)
same,Drug-related TEAE: Feces discolored,"[5]; pruritus responders, n=28",1 (4) n (%)
same,Drug-related TEAE: Frequent bowel movements,"[5]; pruritus responders, n=28",1 (4) n (%)
same,Drug-related TEAE: Hematemesis,"[5]; pruritus responders, n=28",1 (4) n (%)
same,Drug-related TEAE: Hepatic enzyme increased,"[5]; pruritus responders, n=28",1 (4) n (%)
same,Drug-related TEAE: INR increased,"[5]; pruritus responders, n=28",1 (4) n (%)
same,Drug-related TEAE: Nausea,"[5]; pruritus responders, n=28",1 (4) n (%)
same,Drug-related TEAE: Vomiting,"[5]; pruritus responders, n=28",2 (7) n (%)
same,Drug-related TEAE: Weight decreased,"[5]; pruritus responders, n=28",1 (4) n (%)
same,Drug-related TEAEs,"[5]; pruritus responders, n=28",8 (29) n (%)
same,Drug-related serious TEAEs,"[5]; pruritus responders, n=28",1 (4)^a n (%)
same,Serious TEAEs,"[5]; pruritus responders, n=28",3 (11) n (%)
same,TEAEs leading to discontinuation,"[5]; pruritus responders, n=28",0 n (%)
same,TEAEs leading to treatment interruption,"[5]; pruritus responders, n=28",2 (7) n (%)
same,mean reduction from baseline in daytime tiredness (5-point scale 0-4),"[6]; baseline to weeks 21 to 24, caregiver-rated",−1.1
same,"LS mean change from baseline, percent of days sleeping with caregiver",[6]; [10],−35%
same,"LS mean change from baseline, percent of days with help falling asleep",[6]; [10],−43%
same,"LS mean change from baseline, percent of days with soothing",[6]; [10],−47%
